Measured values as given in ChEMBL document CHEMBL5236565, “Design, synthesis, and biological evaluation of novel 2'-methyl-2'-fluoro-6-methyl-7-alkynyl-7-deazapurine nucleoside analogs as anti-Zika virus agents” (Eur J Med Chem, 2022).

Tested on: A549
Test: Cytotoxicity against human A549 cells assessed as cell growth inhibition measured after 24 hrs by MTT assay
Format: functional
Conditions: not given

Q: Cc1ncnc2c1c(C#Cc1ccc(Br)cc1F)cn2[C@@H]1O[C@H](CO)[C@@H](O)[C@@]1(C)F was tested. Which CC50 did it give?
A: > 50 µM

Q: With Cc1ncnc2c1c(C#Cc1cccc(Br)c1)cn2[C@@H]1O[C@H](CO)[C@@H](O)[C@@]1(C)F as the compound, how does the CC50 read?
A: > 50 µM

Q: With Cc1ncnc2c1c(C#Cc1cccs1)cn2[C@@H]1O[C@H](CO)[C@@H](O)[C@@]1(C)F as the compound, how does the CC50 read?
A: > 50 µM

Q: Cc1ccc(C#Cc2cn([C@@H]3O[C@H](CO)[C@@H](O)[C@@]3(C)F)c3ncnc(C)c23)cc1 was tested. Which CC50 did it give?
A: > 50 µM

Q: COc1ccccc1C#Cc1cn([C@@H]2O[C@H](CO)[C@@H](O)[C@@]2(C)F)c2ncnc(C)c12 was tested. Which CC50 did it give?
A: > 50 µM

Q: How did the CC50 turn out when COc1cccc(C#Cc2cn([C@@H]3O[C@H](CO)[C@@H](O)[C@@]3(C)F)c3ncnc(C)c23)c1 was run?
A: > 50 µM

Q: With CCOC(=O)c1ccc(C#Cc2cn([C@@H]3O[C@H](CO)[C@@H](O)[C@@]3(C)F)c3ncnc(C)c23)s1 as the compound, how does the CC50 read?
A: > 50 µM

Q: COc1ccc(C#Cc2cn([C@@H]3O[C@H](CO)[C@@H](O)[C@@]3(C)F)c3ncnc(C)c23)cc1 was tested. Which CC50 did it give?
A: > 50 µM

Tested on: Zika virus
Test: Antiviral activity against ZIKV infected in human A549 cells at 50 uM by microtiter assay relative to control
Format: functional
Conditions: not given

Q: How did the Activity turn out when COc1cccc(C#Cc2cn([C@@H]3O[C@H](CO)[C@@H](O)[C@@]3(C)F)c3ncnc(C)c23)n1 was run?
A: <10%

Q: How did the Activity turn out when Cc1ncnc2c1c(-n1cc(-c3ccccc3)nn1)cn2[C@@H]1O[C@H](CO)[C@@H](O)[C@@]1(C)F was run?
A: <10%

Q: With Cc1ncnc2c1c(C#Cc1cccc(Br)c1)cn2[C@@H]1O[C@H](CO)[C@@H](O)[C@@]1(C)F as the compound, how does the Activity read?
A: >90%

Q: For Cc1ncnc2c1c(C#Cc1cccs1)cn2[C@@H]1O[C@H](CO)[C@@H](O)[C@@]1(C)F, which Activity is on record?
A: >90%

Q: Cc1ccc(C#Cc2cn([C@@H]3O[C@H](CO)[C@@H](O)[C@@]3(C)F)c3ncnc(C)c23)cc1 was tested. Which Activity did it give?
A: >90%

Q: For COc1ccccc1C#Cc1cn([C@@H]2O[C@H](CO)[C@@H](O)[C@@]2(C)F)c2ncnc(C)c12, which Activity is on record?
A: >90%

Q: Which Activity does the source give for COc1cccc(C#Cc2cn([C@@H]3O[C@H](CO)[C@@H](O)[C@@]3(C)F)c3ncnc(C)c23)c1 here?
A: >90%

Q: For CCOC(=O)c1ccc(C#Cc2cn([C@@H]3O[C@H](CO)[C@@H](O)[C@@]3(C)F)c3ncnc(C)c23)s1, which Activity is on record?
A: >90%

Q: With COc1ccc(C#Cc2cn([C@@H]3O[C@H](CO)[C@@H](O)[C@@]3(C)F)c3ncnc(C)c23)cc1 as the compound, how does the Activity read?
A: >90%

Tested on: Zika virus
Test: Antiviral activity against ZIKV ZG-01 infected in human A549 cells assessed as reduction in viral induced cytopathic effect by measuring reduction in PFU measured after 4 days by neutral red staining based plaque assay
Format: functional, organism-based
Conditions: ZG-01, A549, 96 h

Q: Which EC50 does the source give for Cc1ncnc2c1c(C#Cc1ccc(Br)cc1F)cn2[C@@H]1O[C@H](CO)[C@@H](O)[C@@]1(C)F here?
A: 3 µM

Q: How did the EC50 turn out when Cc1ncnc2c1c(C#Cc1cccc(Br)c1)cn2[C@@H]1O[C@H](CO)[C@@H](O)[C@@]1(C)F was run?
A: 4.5 µM

Q: Cc1ncnc2c1c(C#Cc1cccs1)cn2[C@@H]1O[C@H](CO)[C@@H](O)[C@@]1(C)F was tested. Which EC50 did it give?
A: 35.4 µM

Q: How did the EC50 turn out when Cc1ccc(C#Cc2cn([C@@H]3O[C@H](CO)[C@@H](O)[C@@]3(C)F)c3ncnc(C)c23)cc1 was run?
A: 11.8 µM

Q: COc1ccccc1C#Cc1cn([C@@H]2O[C@H](CO)[C@@H](O)[C@@]2(C)F)c2ncnc(C)c12 was tested. Which EC50 did it give?
A: 40.3 µM

Q: COc1cccc(C#Cc2cn([C@@H]3O[C@H](CO)[C@@H](O)[C@@]3(C)F)c3ncnc(C)c23)c1 was tested. Which EC50 did it give?
A: 14.8 µM

Q: For CCOC(=O)c1ccc(C#Cc2cn([C@@H]3O[C@H](CO)[C@@H](O)[C@@]3(C)F)c3ncnc(C)c23)s1, which EC50 is on record?
A: 39.8 µM

Q: With COc1ccc(C#Cc2cn([C@@H]3O[C@H](CO)[C@@H](O)[C@@]3(C)F)c3ncnc(C)c23)cc1 as the compound, how does the EC50 read?
A: 11.8 µM

Same assay, conditions: ZG-01, A549, 96 h, time 4 day

Q: Cc1ncnc2c1c(C#Cc1ccc(Br)cc1F)cn2[C@@H]1O[C@H](CO)[C@@H](O)[C@@]1(C)F was tested. Which EC90 did it give?
A: 7.9 µM

Q: How did the EC90 turn out when Cc1ncnc2c1c(C#Cc1cccc(Br)c1)cn2[C@@H]1O[C@H](CO)[C@@H](O)[C@@]1(C)F was run?
A: 15.4 µM

Q: Which EC90 does the source give for Cc1ncnc2c1c(C#Cc1cccs1)cn2[C@@H]1O[C@H](CO)[C@@H](O)[C@@]1(C)F here?
A: 50 µM

Q: With Cc1ccc(C#Cc2cn([C@@H]3O[C@H](CO)[C@@H](O)[C@@]3(C)F)c3ncnc(C)c23)cc1 as the compound, how does the EC90 read?
A: 24.2 µM

Q: For COc1ccccc1C#Cc1cn([C@@H]2O[C@H](CO)[C@@H](O)[C@@]2(C)F)c2ncnc(C)c12, which EC90 is on record?
A: > 50 µM

Q: How did the EC90 turn out when COc1cccc(C#Cc2cn([C@@H]3O[C@H](CO)[C@@H](O)[C@@]3(C)F)c3ncnc(C)c23)c1 was run?
A: 40.4 µM

Q: With CCOC(=O)c1ccc(C#Cc2cn([C@@H]3O[C@H](CO)[C@@H](O)[C@@]3(C)F)c3ncnc(C)c23)s1 as the compound, how does the EC90 read?
A: > 50 µM

Q: Which EC90 does the source give for COc1ccc(C#Cc2cn([C@@H]3O[C@H](CO)[C@@H](O)[C@@]3(C)F)c3ncnc(C)c23)cc1 here?
A: 40.7 µM
